For 74 compounds, viability results are on record in the supplement of paper PMC6723410.

One assay deals with GUMC-403. The experiment in a line: viability at highest tested concentration (max response) relative to DMSO (% of DMSO control); higher = less cytotoxic. The settings on record: library / dose series: MIPE library, 11-point 1:3 dilution; top concentration 23 µM; 48 h. An outline of the steps:
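Viability at the highest tested concentration is given relative to vehicle control. For this, conditionally reprogrammed patient-derived GUMC-403 papilloma cells at 700/well in 1536-well plates were exposed to 23 nL of pinned compound for 48 h. Luminescence from CellTiter-Glo was read on a ViewLux and scaled between empty wells (0%) and vehicle wells (100%).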
For the compound `C[C@H]1CN(C[C@@H](C)N1)C2=C(F)C3=C(C(=C2F)N)C(=O)\C(=C/N3C4CC4)C(O)=O`, the viability came out at 133.

Staying with this assay, now noted: library / dose series: MIPE library, 11-point 1:3 dilution; top concentration 46.1 µM; 48 h.
`Clc1ccccc1C(c1ccccc1)(c1ccccc1)n1ccnc1` had a viability of 99.5.

As to `Cc1ccc([C@@H]2O[C@H](CO)[C@@H](O)[C@H](O)[C@H]2O)cc1Cc1ccc(-c2ccc(F)cc2)s1`, the viability is 108.

The compound `COc1ccc(C2(C#N)CCC(C(=O)O)CC2)cc1OC1CCCC1` (centres undefined) displayed a viability of 123.

The compound `O=C(Nc1c(Cl)cncc1Cl)c1ccc(OC(F)F)c(OCC2CC2)c1` had a viability of 125.

Compound `Clc1cc(Cl)cc(CNc2ncncc2-c2ccc3c(c2)OCO3)c1` gave a viability of 99.6.

The compound `CCNC(=O)Nc1ccc(Oc2ncnc(N)c2/C=N/OC)cc1Cl` came in with a viability of 109.

In turn, `N#C[C@H](O[C@@H]1O[C@H](CO[C@@H]2O[C@H](CO)[C@@H](O)[C@H](O)[C@H]2O)[C@@H](O)[C@H](O)[C@H]1O)c1ccccc1` registered a viability of 98.6.

Compound `COc1ccccc1N1CCN(CCN(C(=O)C2CCCCC2)c2ccccn2)CC1` returned a viability of 95.3.

With `CCC[C@H]1C[C@H](C(=O)N[C@@H]([C@@H]2O[C@@H](SC)[C@@H](O)[C@@H](O)[C@H]2O)[C@H](C)Cl)N(C)C1`, the viability is 118.

`C=CC(=O)Nc1cc(NC(=O)c2ccc(C)c(NC(=O)c3ccno3)c2)cc(C(F)(F)F)c1` had a viability of 106.

Consider `NC(=O)c1ncn([C@@H]2O[C@H](CO)[C@@H](O)[C@H]2O)c1O`, for which the viability came out at 116.

`CC(C)n1c(/C=C/[C@H](O)C[C@H](O)CC(=O)O)c(-c2ccc(F)cc2)c2ccccc21` came in with a viability of 103.

Compound `CN1CCN(CCOc2cc(OC3CCOCC3)c3c(Nc4c(Cl)ccc5c4OCO5)ncnc3c2)CC1` came in with a viability of 75.9.

In the case of `Clc1ccc(C(Cn2ccnc2)OCc2c(Cl)cccc2Cl)c(Cl)c1` (centres undefined), the viability came out at 113.

In turn, `CN1CCN(c2c(F)cc3c(=O)c(C(=O)O)cn(CCF)c3c2F)CC1` showed a viability of 104.

The compound `NC(=O)Cc1cccc(C(=O)c2ccccc2)c1N` returned a viability of 112.

In the case of `O=C(Nc1ccc(F)c(C(F)(F)F)c1)Nc1nnc(-c2ccncc2)s1`, the viability is 94.

The compound `CO[C@@H](C(=O)N1Cc2[nH]nc(NC(=O)c3ccc(N4CCN(C)CC4)cc3)c2C1)c1ccccc1` returned a viability of 63.5.

With `C[C@@H](Oc1cc(-n2cnc3ccc(CN4CCN(C)CC4)cc32)sc1C(N)=O)c1ccccc1C(F)(F)F`, the viability was 47.4.

Regarding `CC(C)(Sc1ccc(CCN(CCCCC2CCCCC2)C(=O)NC2CCCCC2)cc1)C(=O)O`, the viability was found to be 109.

With `ClC1=C(N\C2=N\CCN2)C3=NSN=C3C=C1`, the viability is 129.

In the case of `NC[C@H]1O[C@H](O[C@@H]2[C@H](O)[C@@H](O[C@H]3O[C@H](CO)[C@@H](O)[C@H](N)[C@H]3O)[C@H](N)C[C@@H]2N)[C@H](O)[C@@H](O)[C@@H]1O`, the viability came to 103.

The compound `Cc1cn[nH]c1` yielded a viability of 126.

Consider `O=C(c1ccc(/C=C/c2n[nH]c3ccccc23)cc1)N1CCNCC1`, for which the viability is 86.5.

As to `O=C1c2ccccc2-c2n[nH]c3cccc1c23`, the viability was determined as 99.2.

The compound `O=C(CO)N1CCC(c2n[nH]c(-c3ccc(Cl)cc3)c2-c2ccncn2)CC1` gave a viability of 109.

Turning to `O=C(O)Cc1cccc(OCCCN(Cc2cccc(C(F)(F)F)c2Cl)CC(c2ccccc2)c2ccccc2)c1`, the viability came to 136.

`CCC[C@@H]1C[C@@H](C(=O)N[C@@H]([C@H]2O[C@H](SC)[C@H](O)[C@@H](O)[C@H]2O)[C@@H](C)O)N(C)C1.Cl` displayed a viability of 101.

`C[N]1C=C(C=N1)C2=C3\C=N/NC(=O)C4=C3C(=CC(=C4)NC(=O)[C@H](N)C5CCCCC5)[NH]2` had a viability of 100.

In the case of `OC(CN1CCN(c2cccc(Cl)c2)CC1)C(c1ccccc1)c1ccccc1` (centres undefined), the viability was 92.

In turn, `OC[C@H]1O[C@@H](O[C@@H]2O\C=C(/[C@H]3C\C=C(CO)/[C@@H]23)C(O)=O)[C@H](O)[C@@H](O)[C@@H]1O` displayed a viability of 124.

`C=CCc1cc(OC)c(O)c(C(=O)NCCO)c1` yielded a viability of 118.

`N[C@@H](Cc1c[nH]c2ccc(O)cc12)C(=O)O` gave a viability of 106.

The compound `COc1ccc(C2CNC(=O)C2)cc1OC1CCCC1` (centres undefined) displayed a viability of 136.

The compound `CCC[S+](=O)([O-])Nc1ccc(F)c(C(=O)c2c[nH]c3ncc(Cl)cc23)c1F` yielded a viability of 79.1.

In the case of `ClC1=C[NH]N=C1C\2NC(=N\C3=C2C(=O)CCC3)/NC4=NC5=CC=CC=C5O4` (centres undefined), the viability was found to be 124.

`CNC(=O)C1=CC=C(C)C(=C1)N2C(=C/C(=C(/Br)C2=O)OCC3=C(F)C=C(F)C=C3)\C` yielded a viability of 109.

`Cn1cc(-c2ccc3ncc(Cc4ccc5ncccc5c4)n3n2)cn1` returned a viability of 123.

As for `c1ccc(CCCN2CCN(CCOC(c3ccccc3)c3ccccc3)CC2)cc1`, the viability stood at 88.7.

Compound `CCCn1c(=O)c2[nH]c(C34CC5CC3C[C@@H](C5)C4)nc2n(CCC)c1=O` showed a viability of 122.

With `CCOP(=O)(OCC)C(C)NC(=O)N(CCCl)N=O` (centres undefined), the viability was 111.

In the case of `C=C1/C(=C\C=C2/CCC[C@]3(C)[C@@H]([C@H](C)/C=C/[C@H](C)C(C)C)CC[C@@H]23)C[C@@H](O)C[C@@H]1O`, the viability is 150.

On to `O=C(O)COCCN1CCN(C(c2ccccc2)c2ccc(Cl)cc2)CC1` (centres undefined), for which the viability came out at 117.

`C[C@@H](CN1CC(=O)NC(=O)C1)N1CC(=O)NC(=O)C1` showed a viability of 118.

The compound `N=C(N)NC(=O)c1nc(Cl)c(N)nc1N` came in with a viability of 125.

Consider `COc1nc(-c2ccc3c(c2)OCO3)n(-c2ccc(NC(=O)CSc3ccccc3)cc2)n1`, for which the viability is 101.

As to `CN1C2CCC1CC(OC(=O)C(CO)c1ccccc1)C2` (centres undefined), the viability came to 109.

The compound `COC1=C(N2CCNC(C)C2)C(=CC3=C1N(\C=C(C(O)=O)/C3=O)C4CC4)F` (centres undefined) showed a viability of 120.

For the compound `CC(C)C[C@@H](N)[C@H](O)C(=O)N[C@H](C(=O)N[C@H](C(=O)N[C@@H](CC(=O)O)C(=O)O)C(C)C)C(C)C`, the viability was 85.7.

Consider `CC(=O)Nc1ccc(OC[C@](C)(O)C(=O)Nc2ccc([N+](=O)[O-])c(C(F)(F)F)c2)cc1`, for which the viability was determined as 88.4.

The compound `CC1COC2(CCN(CC2)C/3=N/C(=O)C4=CC(=CC(=C4S3)[N+]([O-])=O)C(F)(F)F)O1` (centres undefined) returned a viability of 122.

Regarding `CC(C)(C)NC(=O)[C@@H]1CN(Cc2cccnc2)CCN1C[C@@H](O)C[C@@H](Cc1ccccc1)C(=O)N[C@H]1c2ccccc2C[C@H]1O.O=S(=O)(O)O`, the viability was determined as 130.

`N[S+](=O)([O-])c1cc2c(cc1Cl)NCN[S+]2(=O)[O-]` registered a viability of 108.

As to `CN(C)CCN1C(=O)c2cccc3cc(N)cc(c23)C1=O`, the viability came to 62.2.

As to `C[C@](O)(COc1ccc(C#N)cc1)C(=O)Nc1ccc(C#N)c(C(F)(F)F)c1`, the viability is 93.8.

Compound `C[C@@H]1CC[C@@]2(OC1)OC1CC3C4CC=C5CC(O)CCC5(C)C4CCC3(C)C1[C@@H]2C` (some centres undefined) returned a viability of 120.

`C[C@]12CC[C@H]3[C@@H](CC[C@H]4NC(=O)\C=C/[C@]34C)[C@@H]1CC[C@@H]2C(=O)NC5=CC(=CC=C5C(F)(F)F)C(F)(F)F` registered a viability of 96.3.

For `COC(=O)N[C@H](C(=O)N1CCC[C@H]1c1ncc(-c2ccc(-c3ccc(-c4cnc([C@@H]5CCCN5C(=O)[C@@H](NC(=O)OC)C(C)C)[nH]4)cc3)cc2)[nH]1)C(C)C`, the viability came out at 138.

For the compound `CC#CCn1c(N2CCC[C@@H](N)C2)nc2c1c(=O)n(Cc1nc(C)c3ccccc3n1)c(=O)n2C`, the viability worked out at 111.

`Nc1nc2ccc(OC(F)(F)F)cc2s1`: the viability worked out at 86.9.

Consider `Cc1cn(-c2cc(NC(=O)c3ccc(C)c(Nc4nccc(-c5cccnc5)n4)c3)cc(C(F)(F)F)c2)cn1`, for which the viability is 130.

With `CN(C)C(=O)COC(=O)Cc1ccc(OC(=O)c2ccc(NC(=N)N)cc2)cc1`, the viability turned out to be 62.7.

Take `O=C(O)CCCc1c[nH]c2ccccc12`: the viability is 107.

`O=[S+]([O-])(CC1CS1)c1ccc(Oc2ccccc2)cc1` (centres undefined) returned a viability of 122.

Consider `C[C@]1(c2nc3c(C(N)=O)cccc3[nH]2)CCCN1`, for which the viability was found to be 72.9.

The compound `ClC1=CC=C2N/C3=N/C(=O)CN3CC2=C1Cl` had a viability of 94.9.

`CC(C)n1cnc2c(NCCc3ccc(O)cc3)nc(-c3csc4ccccc34)nc21` registered a viability of 112.

Turning to `CC(=O)O[C@@]1(CC[C@H]2[C@@H]3\C=C(Cl)/C4=C/C(=O)[C@@H]5C[C@@H]5[C@]4(C)[C@H]3CC[C@]12C)C(C)=O`, the viability is 76.4.

With `COc1cc(OC)c(/C=C/[S+](=O)([O-])Cc2ccc(OC)c(NCC(=O)[O][Na])c2)c(OC)c1`, the viability was determined as 118.

Turning to `Cc1nc(NC(=O)N2CCC[C@H]2C(N)=O)sc1-c1ccnc(C(C)(C)C(F)(F)F)c1`, the viability came out at 42.4.

On to `COc1ccc(C(=O)CC2(O)C(=O)Nc3c(Cl)ccc(Cl)c32)cc1` (centres undefined), for which the viability was found to be 113.

Turning to `COC(=O)[C@H](c1ccccc1Cl)N1CCc2sccc2C1`, the viability is 124.

Still in this assay, the particulars now being: library / dose series: MIPE library, 11-point 1:3 dilution; top concentration 92.2 µM; 48 h.
Turning to `C[C@@H]1CC[C@@]2(CC[C@]3(C)\C(=C/C[C@@H]4[C@@]5(C)CC[C@H](O)C(C)(C)[C@@H]5CC[C@@]34C)[C@@H]2[C@H]1C)C(O)=O`, the viability turned out to be 95.2.
